Square brackets hold non-standard residues; d marks the D form. * marks the point of attachment. Palmitoyl = CCCCCCCCCCCCCCCC(=O)*; Octanoyl = CCCCCCCC(=O)*; Hexanoyl = CCCCCC(=O)*
Tested on: Normal human epidermal melanocytes, lightly pigmented
Experiment: Melanin inhibition in L-tyrosine-stimulated melanocytes (melanogenese assay)
Assay type: cell-based
Conditions: L-tyrosine 1 mM, 240 hours incubation, inhibition compared to stimulated control
Method: Melanocytes (Normal human epidermal melanocytes, lightly pigmented, 8th passage) were seeded in 24 well plates and cultured for 24 hours in culture medium (M254 supplemented with PMA free HMGS-2, Insulin 5 μg/ml, Penicilline 50 U/ml-Streptomycine 50 μg/ml Gentamycine 25 μg/ml) at 37° C., 5% CO2. The medium was then replaced by culture medium containing the test compounds or the reference (lipoic acid at 5 μg/ml) in presence of L-tyrosine (1 mM). The cells were then incubated for 240 hours with 2 renewals of culture medium containing the test compounds or the reference in presence of L-tyrosine after 96 and 168 hours of incubation. A non-stimulated and a stimulated control were performed in parallel. All experimental conditions were performed in n=3, except for control conditions in n=6. At the end of incubation, the culture supernatants were removed and the melanin was extracted by cell lysis using a 0.5 N NaOH solution. The optical density (OD) of each experimental point was measured at 405 nm and melanin quantity was calculated using melanin standards (standard curve from 0.39 to 100 μg/ml melanin). Results were expressed in μg/ml of melanin and in percentage of inhibition compared to stimulated control.

Substance	Melanin inhibition [%] (1 μM test compound)	Melanin inhibition [%] (10 μM test compound)
Octanoyl-[dW]-Arg-Leu-NH2 [Ref-4]	13	–
H-[dW]-Arg-Leu-NH2 [Ref-5]	−3	14
Palmitoyl-D-Trp-NLe-Leu-NH2 [Ref-3]	13	–
Hexanoyl-[dW]-Arg-Leu-NH2 [Ref-2]	18	8
Palmitoyl-[dW]-Met-Leu-NH2 [Ref-1]	25	43
Palmitoyl-D-Trp-Arg-ATMPA-NH2 [Ref-6]	−3	−12

— US10836791B2, “Compounds” (DSM IP ASSETS B.V., priority 2016, dated 2020)
